Patent EP4226916A1, “LIPID NANOPARTICLE COMPRISING PHOSPHATIDYLSERINE” (Universität Basel, priority 2022, dated 2023)

System: cellular uptake of PS-LNPs and LNPs
Test: Cellular uptake inhibition experiments
Type: cell-based
Settings: at least 50% inhibition considered significant
From the text: To elucidate mechanisms of cellular uptake and intracellular processing in the presence and absence of PS, we conducted a series of cellular uptake inhibition experiments. An arbitrary threshold of at least 50% inhibition was considered to be significant.

Row | Structure (SMILES) | inhibition of uptake of LNPs (without PS) | inhibition of uptake of PS-LNPs
1 | COc1cc2c(c(OC)c1OC)-c1ccc(OC)c(=O)cc1[C@@H](NC(C)=O)CC2 [Colchicine] | specifically inhibited | specifically inhibited
2 | CN(C)CCCN1c2ccccc2Sc2ccc(Cl)cc21 [Chlorpromazine] | – | specifically inhibited
3 | O=C(N/N=C/c1ccc(O)c(O)c1)c1cc2ccccc2cc1O [Dynasore] | specifically inhibited | specifically inhibited
